Experimental data: patent US20120129884A1, “PHOTOCHEMOTHERAPEUTIC HETEROCYCLIC AGENTS HAVING ANTIPROLIFERATIVE AND ANTINEOPLASTIC ACTIVITY” (UNIVERSITA DEGLI STUDI DI PADOVA, priority 2009, published 2012)

Experiments:
[1] = tested on: breast adenocarcinoma (MCF-7); assay: Phototoxicity after UV-A irradiation, MTT test; type: cell-based, human; conditions: mean ± SEM
Method: (§1) The evaluation of phototoxic activity was carried out in some human tumour cell lines: T-cell leukaemia (Jurkat), chronic myeloid leukaemia (K-562), colon adenocarcinoma (LoVo) and breast adenocarcinoma (MCF-7). Cellular survival experiments were carried out without irradiation to verify an eventual toxicity of photosensitizer in the dark, and then after two times of irradiation (10 and 15 min of UV-A, which correspond to 2.5 and 3.75 J/cm^2, respectively), using lamps which emit mainly at 365 nm. Cell survival was checked after 72 h of compound incubation or after 72 h from UVA irradiation by Mosmann's MTT reduction test (3-[4,5-dimethyltiazol-2yl] 2,5-diphenyl tetrazolium bromide), (T. Mossman, Rapid colorimetric assay for cellular growth and survival: application to proliferation and cytotoxicity assays, J. Immunol. Meths. 1983, 65, 55-63). […] In Table 2, there are GI50 values, that is the compound concentration required for 50% cell survival, for each cell line and for every time of irradiation.

[2] = tested on: colon adenocarcinoma (LoVo); assay: Phototoxicity after UV-A irradiation, MTT test; type: cell-based, human; conditions: mean ± SEM
Method: as §1

[3] = tested on: chronic myeloid leukaemia (K-562); assay: Phototoxicity after UV-A irradiation, MTT test; type: cell-based, human; conditions: mean ± SEM
Method: as §1

[4] = tested on: T-cell leukaemia (Jurkat); assay: Phototoxicity after UV-A irradiation, MTT test; type: cell-based, human; conditions: mean ± SEM
Method: as §1

plasmid (pBR322) DNA = assay: Plasmid strand break / DNA photodamage experiments (Fpg, Endo III); type: biochemical; conditions: pBR322, irradiated, Fpg and Endo III
Method: After having assessed a weak affinity toward this macromolecule in the dark by such spectroscopic techniques as linear dichroism and fluorimetric titrations, some plasmid (pBR322) strand break experiments were carried out to check an eventual DNA photodamage by compounds. The formation of open circular or linear DNA from a supercoiled plasmid DNA was monitored by the separation of the three forms using agarose gel horizontal electrophoresis. Beside the formation of frank strand breaks, oxidative damages to purine and pyrimidine bases were also evaluated, incubating the irradiated mixture with the repair enzyme Fpg (Formamidopyrimidine glycosylase) and Endo III (Endonuclase III), respectively. (B. Epe, M. Pflaum, S. Boiteux, DNA damage induced by photosensitizers in cellular and cell-free systems, Mut. Res. 1993, 299, 135-145; T. A. Ciulla, J. R. Van Camp, E. Rosenfeld, I. Kochevar, Photosensitization of single-strand breaks in pBR322 DNA by Rose Bengal, Photochem. Photobiol. 1989, 49, 293-298).

[5] = tested on: human tumour cell lines (Jurkat, K-562, LoVo, MCF-7); assay: Phototoxicity / dark toxicity in all tested human tumour cell lines, MTT test; type: cell-based; conditions: after UVA irradiation
Method: as §1

Jurkat cells = assay: Mitochondrial membrane potential by JC-1 probe after irradiation; type: cell-based, human; conditions: JC-1, 2 h from irradiation, with respect to control
Method: Other two tests were performed to have more information about the mechanism of action and to evaluate which organelles were involved in this process. […] (X. Wang, The expanding role of mitochondria in apoptosis, Gen. Develop. 2001, 15, 2922-2933). An eventual mitochondrial involvement in apoptosis induction was evaluated by such a parameter of mitochondrial dysfunction as the loss of mitochondrial membrane potential. Mitochondrial membrane potential of Jurkat cells was monitored by JC-1 probe after their irradiation in the presence of 9j, 9k and 9m (S. Salvioli, A. Ardizzoni, C. Franceschi, A. Cossarizza, JC-1, but not DiOC6(3) or rhodamine 123, is a reliable fluorescent probe to assess […] changes in intact cells: implications for studies on mitochondrial functionality during apoptosis, FEBS Lett. 1997, 411, 77-82).

[6] = Homo sapiens, MCF7, light or radiation study, 72 h, MCF-7, UV-A 2.5 J/cm^2, 72 h after irradiation
[7] = Homo sapiens, MCF7, light or radiation study, 72 h, MCF-7, UV-A 3.75 J/cm^2, 72 h after irradiation
[8] = Homo sapiens, light or radiation study, 72 h, UV-A 2.5 J/cm^2, 72 h after irradiation
[9] = Homo sapiens, light or radiation study, 72 h, UV-A 3.75 J/cm^2, 72 h after irradiation
[10] = Homo sapiens, K562, light or radiation study, 72 h, K-562, UV-A 2.5 J/cm^2, 72 h after irradiation
[11] = Homo sapiens, K562, light or radiation study, 72 h, K-562, UV-A 3.75 J/cm^2, 72 h after irradiation
[12] = MCF-7, UV-A 2.5 J/cm^2, 72 h after irradiation
[13] = MCF-7, UV-A 3.75 J/cm^2, 72 h after irradiation
[14] = UV-A 2.5 J/cm^2, 72 h after irradiation
[15] = UV-A 3.75 J/cm^2, 72 h after irradiation
[16] = K-562, UV-A 2.5 J/cm^2, 72 h after irradiation
[17] = K-562, UV-A 3.75 J/cm^2, 72 h after irradiation

Compound	GI50 [1, 6]	GI50 [1, 7]	GI50 [2, 8]	GI50 [2, 9]	GI50 [3, 10]	GI50 [3, 11]	GI50 [4, 8]	GI50 [4, 9]	GI50 [1, 12]	GI50 [1, 13]	GI50 [2, 14]	GI50 [2, 15]	GI50 [3, 16]	GI50 [3, 17]	GI50 [4, 14]	GI50 [4, 15]	DNA photodamage (photocleavage, oxidative damages in DNA bases) (plasmid (pBR322) DNA)	GI50 (phototoxic) [5]	cell percentage with collapsed mitochondrial potential (Jurkat cells)
O=c1ccc2ccc3occc3c2o1 [Ang, angelicin, reference compound]	4400 ± 500 nM	1500 ± 200 nM	3600 ± 400 nM	1500 ± 300 nM	1200 ± 100 nM	1000 ± 100 nM	1000 ± 200 nM	900 ± 100 nM	–	–	–	–	–	–	–	–	–	–	–
O=c1[nH]c2c(cc1S(=O)(=O)c1ccccc1)CCc1ccn(S(=O)(=O)c3ccccc3)c1-2 [Compound 9a, 1,7-bis(Phenylsulfonyl)-1,4,5,9-tetrahydro-8H-pyrrolo[3,2-h]quinolin-8-one]	> 20000 nM	> 20000 nM	> 20000 nM	> 20000 nM	> 20000 nM	> 20000 nM	> 20000 nM	> 20000 nM	–	–	–	–	–	–	–	–	–	–	–
O=c1[nH]c2c(cc1S(=O)(=O)c1ccccc1)CCc1cc[nH]c1-2 [Compound 9b, 7-(Phenylsulfonyl)-1,4,5,9-tetrahydro-8H-pyrrolo[3,2-h]quinolin-8-one]	> 20000 nM	> 20000 nM	> 20000 nM	> 20000 nM	> 20000 nM	> 20000 nM	> 20000 nM	> 20000 nM	–	–	–	–	–	–	–	–	–	–	–
N#Cc1cc2c([nH]c1=O)-c1c(ccn1S(=O)(=O)c1ccccc1)CC2 [Compound 9c, 1-(Phenylsulfonyl)-1,4,5,9-tetrahydro-8H-pyrrolo[3,2-h]quinolin-7-carbonitrile-8-one]	–	–	–	–	–	–	–	–	> 20000 nM	> 20000 nM	> 20000 nM	> 20000 nM	> 20000 nM	> 20000 nM	> 20000 nM	> 20000 nM	–	–	–
Cn1ccc2c1-c1[nH]c(=O)c(S(=O)(=O)c3ccccc3)cc1CC2 [Compound 9d, 1-Methyl-7-(phenylsulfonyl)-1,4,5,9-tetrahydro-8H-pyrrolo[3,2-h]quinolin-8-one]	> 20000 nM	> 20000 nM	> 20000 nM	> 20000 nM	> 20000 nM	> 20000 nM	> 20000 nM	> 20000 nM	–	–	–	–	–	–	–	–	–	–	–
O=c1[nH]c2c(cc1S(=O)(=O)c1ccccc1)CCc1ccn(Cc3ccccc3)c1-2 [Compound 9e, 1-Benzyl-7-(phenylsulfonyl)-1,4,5,9-tetrahydro-8H-pyrrolo[3,2-h]quinolin-8-one]	4000 ± 600 nM	1700 ± 700 nM	2600 ± 200 nM	2200 ± 200 nM	4800 ± 500 nM	3300 ± 500 nM	1300 ± 200 nM	1100 ± 100 nM	–	–	–	–	–	–	–	–	–	–	–
O=c1[nH]c2c(cc1S(=O)(=O)c1ccccc1)CCc1ccn(-c3ccccc3)c1-2 [Compound 9f, 1-Phenyl-7-(phenylsulfonyl)-1,4,5,9-tetrahydro-8H-pyrrolo[3,2-h]quinolin-8-one]	> 20000 nM	> 20000 nM	> 20000 nM	> 20000 nM	> 20000 nM	> 20000 nM	> 20000 nM	> 20000 nM	–	–	–	–	–	–	–	–	–	–	–
Cc1ccc(Cn2ccc3c2-c2[nH]c(=O)c(S(=O)(=O)c4ccccc4)cc2CC3)cc1 [Compound 9g, 1-(p-Methyl-benzyl)-7-(phenylsulfonyl)-1,4,5,9-tetrahydro-8H-pyrrolo[3,2-h]quinolin-8-one]	3800 ± 500 nM	2400 ± 200 nM	2700 ± 100 nM	2300 ± 200 nM	2700 ± 200 nM	2400 ± 100 nM	1600 ± 100 nM	1200 ± 200 nM	–	–	–	–	–	–	–	–	–	–	–
COc1ccc(Cn2ccc3c2-c2[nH]c(=O)c(S(=O)(=O)c4ccccc4)cc2CC3)cc1 [Compound 9h, 1-(p-Methoxy-benzyl)-7-(phenylsulfonyl)-1,4,5,9-tetrahydro-8H-pyrrolo[3,24]quinolin-8-one]	–	–	–	–	–	–	–	–	4200 ± 700 nM	1800 ± 100 nM	2800 ± 300 nM	2000 ± 200 nM	3100 ± 400 nM	2500 ± 200 nM	1600 ± 200 nM	1200 ± 200 nM	–	–	–
CCOC(=O)c1cc2c([nH]1)-c1[nH]c(=O)c(S(=O)(=O)c3ccccc3)cc1CC2 [Compound 9i, Ethyl 7-(phenylsulfonyl)-1,4,5,9-tetrahydro-8H-pyrrolo[3,2-h]quinolin-8-one-2-carboxylate]	6100 ± 200 nM	4300 ± 700 nM	5500 ± 200 nM	4600 ± 400 nM	6100 ± 200 nM	5400 ± 600 nM	3500 ± 400 nM	2500 ± 200 nM	–	–	–	–	–	–	–	–	–	–	–
CCOC(=O)c1cc2c(n1C)-c1[nH]c(=O)c(S(=O)(=O)c3ccccc3)cc1CC2 [Compound 9j, Ethyl 1-methyl-7-(phenylsulfonyl)-1,4,5,9-tetrahydro-8H-pyrrolo[3,2-h]quinolin-8-one-2-carboxylate]	1200 ± 100 nM	1000 ± 100 nM	1100 ± 100 nM	1000 ± 100 nM	1000 ± 100 nM	900 ± 100 nM	700 ± 100 nM	500 ± 100 nM	–	–	–	–	–	–	–	–	do not induce DNA photodamage	submicromolar	–
CCOC(=O)c1cc2c(n1Cc1ccccc1)-c1[nH]c(=O)c(S(=O)(=O)c3ccccc3)cc1CC2 [Compound 9k, Ethyl 1-benzyl-7-(phenylsulfonyl)-1,4,5,9-tetrahydro-8H-pyrrolo[3,2-h]quinolin-8-one-2-carboxylate]	900 ± 100 nM	800 ± 100 nM	900 ± 100 nM	800 ± 100 nM	900 ± 100 nM	600 ± 100 nM	800 ± 100 nM	600 ± 100 nM	–	–	–	–	–	–	–	–	do not induce DNA photodamage	submicromolar	increase of cell percentage with collapsed mitochondrial potential
CCOC(=O)c1cc2c(n1Cc1ccc(C)cc1)-c1[nH]c(=O)c(S(=O)(=O)c3ccccc3)cc1CC2 [Compound 9l, Ethyl 1-(p-methyl-benzyl)-7-(phenylsulfonyl)-1,4,5,9-tetrahydro-8H-pyrrolo[3,2-h] quinolin-8-one-2-carboxylate]	1700 ± 300 nM	1500 ± 200 nM	1600 ± 200 nM	1000 ± 200 nM	1200 ± 300 nM	1000 ± 100 nM	1500 ± 200 nM	1200 ± 100 nM	–	–	–	–	–	–	–	–	–	–	–
CCOC(=O)c1cc2c(n1Cc1ccc(OC)cc1)-c1[nH]c(=O)c(S(=O)(=O)c3ccccc3)cc1CC2 [Compound 9m, Ethyl 1-(p-methoxy-benzyl)-7-(phenylsulfonyl)-1,4,5,9-tetrahydro-8H-pyrrolo[3,24] quinolin-8-one-2-carboxylate]	–	–	–	–	–	–	–	–	1600 ± 200 nM	1400 ± 200 nM	1100 ± 100 nM	1000 ± 200 nM	1000 ± 100 nM	900 ± 100 nM	800 ± 100 nM	700 ± 100 nM	do not induce DNA photodamage	submicromolar	increase of cell percentage with collapsed mitochondrial potential
